Assay results taken from patent publication US20070043108A1, “Use of equol for ameliorating or preventing neuropsychiatric and neurodegenerative diseases or disorders” (priority 2002, published 2007).
Read-outs that look alike come from different tables or passages of the source.

Tests used:
[1] = test system: Adult male Sprague-Dawley rats; experiment: Example 15: elevated plus maze of equol injected male rats; type: in vivo, rat; settings: 0.250 mg/Kg/day sc, seven days, n = 8
Excerpt: The elevated plus maze is a behavioral test used to quantify anxiety-related behavior and identify anxiolytic drugs (Pellow S. et al., J Neurosci Methods, 14:149-147 (1985); Current Protocols In Neuroscience (1997) 8.3.1-8.3.15, John Wiley & Sons. NY, N.Y.). The test relies on the inherent conflict between exploration of a novel environment and avoidance of its aversive features. Normally, animals spend little time and make few entries into the open arms of the maze compared to the closed arms of the maze (Imhof J. T. et al., Behav Brain Res, 56:177-180 (1993). However, animals treated with anxiolytics, such as benzodiazepines (valium), spend more time in the open arms and the number of entries into the open arms reflects a decrease in anxiety-related behaviors (Pellow S. et al., J Neurosci Methods, 14:149-147 (1985); Current Protocols In Neuroscience (1997) 8.3.1-8.3.15, John Wiley & Sons. NY, N.Y.; Chopin P. et al., Psychopharm, 110:409-414 (1993).
Adult male Sprague-Dawley rats receive daily injections of either DMSO, racemic equol (0.250 mg/Kg/day), R-equol (0.250 mg/Kg/day), or S-equol (0.250 mg/Kg/day) in a total volume of 0.3 cc DMSO by subcutaneous injection. At the end of seven consecutive days of treatment the animals are tested in the elevated plus maze in order to quantify anxiety-related behaviors.

AR = target: T1, AR (Rattus norvegicus, UniProt P15207); experiment: Binding to the androgen receptor (prostate supernatant, [3H]DHT)
T1 construct: incubated with prostate supernatant and then passed through the 30 cm column; from tissue; host or cells: prostate supernatant
T1 sequence (P15207 1-902): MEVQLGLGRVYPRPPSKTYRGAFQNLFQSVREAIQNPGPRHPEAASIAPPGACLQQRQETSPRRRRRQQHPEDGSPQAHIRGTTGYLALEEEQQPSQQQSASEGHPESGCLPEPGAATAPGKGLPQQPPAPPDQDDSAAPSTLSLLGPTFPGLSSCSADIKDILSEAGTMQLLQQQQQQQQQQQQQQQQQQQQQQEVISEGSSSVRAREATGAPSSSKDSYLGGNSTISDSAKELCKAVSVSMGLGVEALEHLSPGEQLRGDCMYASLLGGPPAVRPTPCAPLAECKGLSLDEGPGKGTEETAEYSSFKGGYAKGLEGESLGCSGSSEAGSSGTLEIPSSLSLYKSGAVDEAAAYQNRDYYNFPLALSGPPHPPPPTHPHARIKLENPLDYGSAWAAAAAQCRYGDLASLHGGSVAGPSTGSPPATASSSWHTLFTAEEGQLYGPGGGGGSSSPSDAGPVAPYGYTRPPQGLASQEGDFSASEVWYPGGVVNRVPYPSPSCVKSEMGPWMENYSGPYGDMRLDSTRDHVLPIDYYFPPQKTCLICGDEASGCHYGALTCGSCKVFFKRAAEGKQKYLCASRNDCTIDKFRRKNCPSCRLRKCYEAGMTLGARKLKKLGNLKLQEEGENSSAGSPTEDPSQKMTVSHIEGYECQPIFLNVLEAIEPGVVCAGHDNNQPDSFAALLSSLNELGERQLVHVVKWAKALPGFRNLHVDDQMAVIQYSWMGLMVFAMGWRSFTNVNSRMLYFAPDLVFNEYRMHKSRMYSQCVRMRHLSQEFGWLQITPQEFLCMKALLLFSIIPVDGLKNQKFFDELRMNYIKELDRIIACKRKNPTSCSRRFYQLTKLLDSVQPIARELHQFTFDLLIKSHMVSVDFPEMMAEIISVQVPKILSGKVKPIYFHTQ

[2] = test system: Adult male Sprague-Dawley rats; experiment: Example 3: prostate, epididymis and body weight gain in male rats treated with racemic, R- or S-equol; type: in vivo, rat; settings: for Body Wt Gain (g) / Epididymis (g) / Prostate (g): 0.25 mg/kg/day sc, seven days
Procedure: Adult male Sprague-Dawley rats are randomly assigned to […] groups and receive daily injections of either DMSO, a racemic mixture of equol at 0.250 mg/kg/day), R-equol at 0.250 mg/kg/day, or S-equol at 0.250 mg/kg/day. The total volume of each injection is 0.3 cc, administered sc at the nape of the rat's neck. After seven consecutive days of treatment, the rats are killed and the body weight gain during the injection period is determined.

GDX males = experiment: Examples 5 and 6: gonadectomized (GDX) male rats treated with DHTP, equol or both; histology; type: in vivo, rat
Procedure: One week following arrival, animals are gonadectomized (GDX) under isoflurane anesthesia and allowed to recover for 7 days. Following recovery, animals are assigned to the following groups 1) DMSO, 2) DHTP (2 mg/1 kg), 3) racemic equol (0.25 mg/kg), or 4) both DHTP and racemic equol. Injections are given subcutaneously daily for 4 days. Animals are killed via decapitation and trunk blood and tissues are collected for analysis.
Tissues, including prostate, testes and epididymis, are removed from the animal, dissected free of fat and connective tissues, weighed, fixed by immersion in 4% paraformaldehyde, and then sectioned at 15 μm on a cryostat. Tissue sections are mounted on charged slides (Superfrost Plus, Fisher Scientific, Pittsburgh, Pa.) prewarmed to 23° C., and stained with hematoxylin and eosin (H&E), dehydrated in ascending alcohol and cleared with xylene.

Male Long-Evans rats = experiment: Example 13: racemic equol injections in male rats on Phyto-Free diet; type: in vivo, rat
Excerpt: Prior to initiation of a Phyto-Free diet period Male Long-Evans rats are fed a Phyto-200 diet, as described in previous examples. The rats are placed on a diet containing the Phyto-Free diet at approximately 52 days of age and randomly assigned to three groups. Baseline body weights after 14 days and 21 days on the Phyto-Free diet for all rats are similar, shown in FIGS. 43 and 44, respectively. Beginning at 73 days of age, rats receive daily subcutaneous 0.1 cc injections of vehicle (peanut oil), 1 milligram of a racemic mixture of equol in vehicle (0.83 mg/kg body weight/day), or 5 milligrams of a racemic mixture of equol in vehicle (4.2 mg/kg body weight/day) once every three days.

[3] = Bioavailability of R-equol after oral administration to a healthy adult; type: in vivo, human
Procedure: 20 mg of pure R-equol was administered orally to a healthy adult after an overnight fast. Blood samples were collected at timed intervals over the next 24 hours and the plasma concentration of equol was determined by isotope dilution gas chromatography-mass spectrometry with selected ion monitoring. Rapid appearance of equol is observed in the plasma with peak concentrations observed after 8 hours. The terminal elimination half-life of R-equol was approximately 8 hours.

Oc1ccc(C2COc3cc(O)ccc3C2)cc1 (racemic) [equol, 7-hydroxy-3(4′hydroxyphenyl)-chroman]
Center Area [1]: 37.1 ± 6.3 s
Open Arm Time [1]: 40.9 ± 7.0 s
binding to the androgen receptor (AR): does not compete with 5α-DHT for the AR
binding to the androgen receptor (AR; listed as Equol racemic): does not bind the androgen receptor
Body Wt Gain (g) [2]: 56.1 (±3.7) g
Epididymis (g) [2]: 0.89 (±.03) g
Prostate (g) [2]: 0.38 (±0.02) g
decrease in body weight ([2]; equol experiments): around 10%
reduction in white adipose tissue deposition ([2]; racemic equol injections): around 36%
LH, in combination with DHTP (GDX males; GDX males, DHTP+equol): blocks the negative feedback effects of DHTP on LH secretion
prostate weight, concomitant treatment with DHTP (GDX males; GDX males, DHTP+equol): blocks the effects of DHTP
LH (GDX males; GDX males, given alone, vs DMSO): no effect on LH levels
prostate weight (GDX males; GDX males, given alone, vs vehicle-treated GDX): no effect alone on prostate size
plasma 5α-DHT, co-treatment of DHTP-treated animals with equol (GDX males; GDX+equol+DHTP vs GDX+DHTP): further elevated, although, not significantly
reduction in adipose tissue mass (Male Long-Evans rats; 101-day-old rats, vs controls): approximately 33%
testes weight (Male Long-Evans rats; 28 days after start of injections): no significant alterations
body weights and average body weight gains (Male Long-Evans rats; at 80 and 88 days of age, 1 or 5 mg racemic equol sc, vs controls): not significantly different from controls
average body weight gains (Male Long-Evans rats; at 95 and 101 days, vs control): significantly reduced

Oc1ccc([C@@H]2COc3cc(O)ccc3C2)cc1 [R-equol]
Center Area [1]: 36.4 ± 7.6 s
Open Arm Time [1]: 50.0 ± 10.0 s
binding to the androgen receptor (AR): does not bind the androgen receptor
Body Wt Gain (g) [2]: 45.6 (±5.5) g
Epididymis (g) [2]: 0.85 (±0.04) g
Prostate (g) [2]: 0.31 (±0.02) g
bioavailability ([3]; 20 mg orally): extremely bioavailable
time of peak plasma concentrations ([3]; 20 mg orally after overnight fast, healthy adult): 8 h
stability of the enantiomer in vivo (racemization, biotransformation) ([3]; equol in plasma by ESI-MS after 20 mg orally): does not undergo any racemization or further biotransformation in the intestine
half-life ([3]; human, plasma, po, 20 mg orally, healthy adult, read-out: terminal elimination half-life (converted)): ~8 h
